Test results from publication PMC10974743, “Design, Synthesis, and Biological Evaluation of Novel Phenoxy Acetic Acid Derivatives as Selective COX-2 Inhibitors Coupled with Comprehensive Bio-Pharmacological Inquiry, Histopathological Profiling, and Toxicological Scrutiny” (Molecules, 2024).

biological target: T1, human COX-2 (Homo sapiens, UniProt P35354); experiment: In vitro COX-2 inhibition assay (Cayman colorimetric COX inhibitor screening kit); details: COX-1 (IC50)/COX-2 (IC50)
T1 sequence (P35354 18-604): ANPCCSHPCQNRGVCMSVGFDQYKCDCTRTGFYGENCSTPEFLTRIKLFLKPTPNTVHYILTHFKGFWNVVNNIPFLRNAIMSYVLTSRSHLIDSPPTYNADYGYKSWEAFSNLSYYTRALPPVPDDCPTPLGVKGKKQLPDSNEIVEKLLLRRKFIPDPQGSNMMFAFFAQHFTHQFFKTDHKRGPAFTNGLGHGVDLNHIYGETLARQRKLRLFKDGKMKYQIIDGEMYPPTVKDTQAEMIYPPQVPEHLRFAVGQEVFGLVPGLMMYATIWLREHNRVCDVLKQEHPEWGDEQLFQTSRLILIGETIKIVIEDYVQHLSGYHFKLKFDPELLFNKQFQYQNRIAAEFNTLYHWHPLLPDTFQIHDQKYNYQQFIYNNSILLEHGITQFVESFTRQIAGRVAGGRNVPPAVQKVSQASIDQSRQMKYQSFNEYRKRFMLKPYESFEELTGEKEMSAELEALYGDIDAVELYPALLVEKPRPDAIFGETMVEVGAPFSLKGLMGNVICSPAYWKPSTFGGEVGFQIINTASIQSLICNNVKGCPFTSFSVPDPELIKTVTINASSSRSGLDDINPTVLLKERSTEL
Experimental: The in vitro enzyme assays were performed at the Biochemistry Department, Cairo
General Hospital, Egypt. Cayman® colorimetric COX (ovine) inhibitor screening assay kit (Item
enzymes in presence of all newly compounds. Generally, this kit is dependent on the reductive
reaction of COX. A specific antibody binds to PGH2 produced by COX and is further quantified
by the ELISA technique as previously reported. After that, the selectivity index (SI) was calculated
as the following equation:
𝐒𝐞𝐥𝐞𝐜𝐭𝐢𝐯𝐢𝐭𝐲 𝐢𝐧𝐝𝐞𝐱 (𝐒𝐈) = 𝐈𝐂₅₀𝐨𝐟 𝐂𝐎𝐗 − 𝟏

| SI (COX-2 selectivity index) | Compound |
| --- | --- |
| 55.22 | O=C(O)COc1ccc(Br)cc1C=NNC(=O)CNc1ccc(Cl)cc1 [Compound 10f, 2-(4-Bromo-2-((2-((4 chlorophenyl)glycyl)hydrazineylidene)methyl)phenoxy) acetic acid] |

same assay, conditions: COX-2 IC50, mean ± SEM, n = 3

| IC50 | Compound |
| --- | --- |
| 90 ± 10 nM | O=C(O)COc1ccc(Br)cc1C=NNC(=O)CNc1ccc(Cl)cc1 [Compound 10f, 2-(4-Bromo-2-((2-((4 chlorophenyl)glycyl)hydrazineylidene)methyl)phenoxy) acetic acid] |

biological target: T2, ovine COX-1 (Ovis aries, UniProt P05979); experiment: In vitro COX-1 inhibition assay (Cayman colorimetric COX inhibitor screening kit); details: not given
T2 sequence (P05979 25-600): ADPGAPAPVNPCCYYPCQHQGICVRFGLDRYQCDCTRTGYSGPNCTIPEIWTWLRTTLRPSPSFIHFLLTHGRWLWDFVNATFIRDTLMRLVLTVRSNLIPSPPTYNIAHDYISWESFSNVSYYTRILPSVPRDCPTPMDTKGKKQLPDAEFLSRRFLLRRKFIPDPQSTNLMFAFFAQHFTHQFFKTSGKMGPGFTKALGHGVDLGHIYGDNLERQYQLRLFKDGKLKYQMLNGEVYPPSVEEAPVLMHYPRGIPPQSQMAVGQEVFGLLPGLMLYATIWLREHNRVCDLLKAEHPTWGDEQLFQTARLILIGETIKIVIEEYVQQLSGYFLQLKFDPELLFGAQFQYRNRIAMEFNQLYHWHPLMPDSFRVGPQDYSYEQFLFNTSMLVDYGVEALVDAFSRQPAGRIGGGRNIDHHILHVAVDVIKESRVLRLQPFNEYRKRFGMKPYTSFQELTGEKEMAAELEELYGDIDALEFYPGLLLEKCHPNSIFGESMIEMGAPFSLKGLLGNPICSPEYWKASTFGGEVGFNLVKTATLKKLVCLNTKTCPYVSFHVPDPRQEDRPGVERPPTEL

| IC50 | Compound |
| --- | --- |
| 4970 ± 60 nM | O=C(O)COc1ccc(Br)cc1C=NNC(=O)CNc1ccc(Cl)cc1 [Compound 10f, 2-(4-Bromo-2-((2-((4 chlorophenyl)glycyl)hydrazineylidene)methyl)phenoxy) acetic acid] |

system: carrageenan-induced paw edema; experiment: Carrageenan paw edema test (paw thickness, paw weight); details: 1st h after carrageenan, oral, mean ± SD, n = 6; further: test concentration or dose not given here

| Compound | Paw thickness difference |
| --- | --- |
| O=C(O)COc1ccc(Br)cc1C=NNC(=O)CNc1ccc(Cl)cc1 [Compound 10f, 2-(4-Bromo-2-((2-((4 chlorophenyl)glycyl)hydrazineylidene)methyl)phenoxy) acetic acid] | 1.77 ± 0.27 mm |

same assay, conditions: 1st h, vs carrageenan group

| Compound | Percentage of inhibition of paw thickness |
| --- | --- |
| O=C(O)COc1ccc(Br)cc1C=NNC(=O)CNc1ccc(Cl)cc1 [Compound 10f, 2-(4-Bromo-2-((2-((4 chlorophenyl)glycyl)hydrazineylidene)methyl)phenoxy) acetic acid] | 10.39% |

same assay, conditions: 2nd h after carrageenan, oral, mean ± SD, n = 6

| Compound | Paw thickness difference |
| --- | --- |
| O=C(O)COc1ccc(Br)cc1C=NNC(=O)CNc1ccc(Cl)cc1 [Compound 10f, 2-(4-Bromo-2-((2-((4 chlorophenyl)glycyl)hydrazineylidene)methyl)phenoxy) acetic acid] | 2.85 ± 0.46 mm |

same assay, conditions: 2nd h, vs carrageenan group

| Compound | Percentage of inhibition of paw thickness |
| --- | --- |
| O=C(O)COc1ccc(Br)cc1C=NNC(=O)CNc1ccc(Cl)cc1 [Compound 10f, 2-(4-Bromo-2-((2-((4 chlorophenyl)glycyl)hydrazineylidene)methyl)phenoxy) acetic acid] | 13.51% |

same assay, conditions: 3rd h after carrageenan, oral, mean ± SD, n = 6

| Compound | Paw thickness difference |
| --- | --- |
| O=C(O)COc1ccc(Br)cc1C=NNC(=O)CNc1ccc(Cl)cc1 [Compound 10f, 2-(4-Bromo-2-((2-((4 chlorophenyl)glycyl)hydrazineylidene)methyl)phenoxy) acetic acid] | 3.24 ± 0.46 mm |

same assay, conditions: 3rd h, vs carrageenan group

| Compound | Percentage of inhibition of paw thickness |
| --- | --- |
| O=C(O)COc1ccc(Br)cc1C=NNC(=O)CNc1ccc(Cl)cc1 [Compound 10f, 2-(4-Bromo-2-((2-((4 chlorophenyl)glycyl)hydrazineylidene)methyl)phenoxy) acetic acid] | 23.17% |

same assay, conditions: 4th h after carrageenan, oral, mean ± SD, n = 6

| Compound | Paw thickness difference |
| --- | --- |
| O=C(O)COc1ccc(Br)cc1C=NNC(=O)CNc1ccc(Cl)cc1 [Compound 10f, 2-(4-Bromo-2-((2-((4 chlorophenyl)glycyl)hydrazineylidene)methyl)phenoxy) acetic acid] | 3.63 ± 0.48 mm |

same assay, conditions: 4th h, vs carrageenan group

| Compound | Percentage of inhibition of paw thickness |
| --- | --- |
| O=C(O)COc1ccc(Br)cc1C=NNC(=O)CNc1ccc(Cl)cc1 [Compound 10f, 2-(4-Bromo-2-((2-((4 chlorophenyl)glycyl)hydrazineylidene)methyl)phenoxy) acetic acid] | 28.04% |

same assay, conditions: 5th h after carrageenan, oral, mean ± SD, n = 6

| Compound | Paw thickness difference |
| --- | --- |
| O=C(O)COc1ccc(Br)cc1C=NNC(=O)CNc1ccc(Cl)cc1 [Compound 10f, 2-(4-Bromo-2-((2-((4 chlorophenyl)glycyl)hydrazineylidene)methyl)phenoxy) acetic acid] | 3.78 ± 0.51 mm |

same assay, conditions: 5th h, vs carrageenan group

| Compound | Percentage of inhibition of paw thickness |
| --- | --- |
| O=C(O)COc1ccc(Br)cc1C=NNC(=O)CNc1ccc(Cl)cc1 [Compound 10f, 2-(4-Bromo-2-((2-((4 chlorophenyl)glycyl)hydrazineylidene)methyl)phenoxy) acetic acid] | 28.80% |

same assay, conditions: right vs left paw, after 5 h, mean ± SD, n = 6

| Compound | Paw Weight Increase |
| --- | --- |
| O=C(O)COc1ccc(Br)cc1C=NNC(=O)CNc1ccc(Cl)cc1 [Compound 10f, 2-(4-Bromo-2-((2-((4 chlorophenyl)glycyl)hydrazineylidene)methyl)phenoxy) acetic acid] | 59.16 ± 2.72 ^abcd % |

system: COX-2; experiment: not given; details: cited from earlier work

| Compound | Selectivity for COX-2 over COX-1 | IC50 |
| --- | --- | --- |
| NS(=O)(=O)c1ccc(-n2nc(C(F)(F)F)cc2-c2ccc(Br)cc2)cc1 [SC-558] | 1900 fold |  |
| Cc1ccc(-c2ncc(Cl)cc2-c2ccc(S(C)(=O)=O)cc2)cn1 [etoricoxib] |  | 5000 nM |
| CS(=O)(=O)c1ccc(C2=C(c3ccccc3)C(=O)OC2)cc1 [rofecoxib] |  | 500 nM |

same assay, conditions: earlier work of the authors; cited from earlier work

| Compound | IC50 |
| --- | --- |
| O=C(O)COc1ccc(/C=C2\SC(N3N=C(c4ccc(Cl)cc4)CC3c3ccccc3)=NC2=O)cc1 (stereo not drawn) [XIV] | 60 nM |
